{
  "source": "ChEMBL document CHEMBL5465560",
  "about": "“Selectivity Literature for EUbOPEN Chemogenomic Library” (2024)",
  "key": {"[1]": {"target": "Serine/threonine-protein kinase tousled-like 2 (Homo sapiens) (UniProt Q86UE8)", "sequence (Q86UE8 whole entry, looked up)": "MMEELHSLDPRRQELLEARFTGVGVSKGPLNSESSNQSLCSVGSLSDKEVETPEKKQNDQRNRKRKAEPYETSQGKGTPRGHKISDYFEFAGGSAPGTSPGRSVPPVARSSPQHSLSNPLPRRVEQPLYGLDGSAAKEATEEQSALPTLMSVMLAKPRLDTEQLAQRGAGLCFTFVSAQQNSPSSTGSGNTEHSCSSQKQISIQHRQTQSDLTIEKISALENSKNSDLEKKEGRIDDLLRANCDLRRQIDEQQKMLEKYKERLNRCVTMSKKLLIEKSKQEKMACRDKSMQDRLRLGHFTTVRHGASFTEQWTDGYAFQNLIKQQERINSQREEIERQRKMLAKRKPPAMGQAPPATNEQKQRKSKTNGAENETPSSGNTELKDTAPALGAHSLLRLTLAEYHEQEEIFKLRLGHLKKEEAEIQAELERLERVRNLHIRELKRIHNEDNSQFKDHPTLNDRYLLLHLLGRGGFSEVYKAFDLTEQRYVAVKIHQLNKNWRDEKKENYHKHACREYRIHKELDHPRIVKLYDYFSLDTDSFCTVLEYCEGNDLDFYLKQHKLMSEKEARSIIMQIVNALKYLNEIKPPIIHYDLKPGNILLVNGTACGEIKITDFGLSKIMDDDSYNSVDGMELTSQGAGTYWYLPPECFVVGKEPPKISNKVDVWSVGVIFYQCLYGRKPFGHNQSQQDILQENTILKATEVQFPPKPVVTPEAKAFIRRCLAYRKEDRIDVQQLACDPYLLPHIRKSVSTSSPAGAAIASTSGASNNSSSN", "experiment": "Selectivity interaction (KinomeScan (DiscoverX)) EUB0001049a TLK2", "settings": "at 1 µM"}, "[2]": {"target": "T1, Serine/threonine-protein kinase NLK (Homo sapiens) (UniProt Q9UBE8)", "T1 sequence (whole entry)": "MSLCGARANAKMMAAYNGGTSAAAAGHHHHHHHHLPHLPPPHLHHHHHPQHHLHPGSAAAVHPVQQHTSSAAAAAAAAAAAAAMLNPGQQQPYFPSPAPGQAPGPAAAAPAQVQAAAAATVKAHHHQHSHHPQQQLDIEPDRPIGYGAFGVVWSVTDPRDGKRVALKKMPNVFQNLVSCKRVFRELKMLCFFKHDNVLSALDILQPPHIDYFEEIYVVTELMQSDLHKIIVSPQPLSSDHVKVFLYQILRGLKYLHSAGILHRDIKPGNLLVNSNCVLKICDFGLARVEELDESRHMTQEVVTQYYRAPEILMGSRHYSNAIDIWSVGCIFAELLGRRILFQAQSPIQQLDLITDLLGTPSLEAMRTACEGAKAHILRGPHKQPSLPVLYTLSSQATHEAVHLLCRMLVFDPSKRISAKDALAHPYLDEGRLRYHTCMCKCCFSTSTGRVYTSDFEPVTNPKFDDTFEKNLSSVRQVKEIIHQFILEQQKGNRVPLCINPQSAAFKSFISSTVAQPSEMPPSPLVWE", "experiment": "Selectivity interaction (Upstate Kinase Profiler service (Millipore)) EUB0000056c NLK", "settings": "at 1 µM"}, "[3]": {"target": "T2, Testis-specific serine/threonine-protein kinase 1 (Homo sapiens) (UniProt Q9BXA7)", "T2 sequence (whole entry)": "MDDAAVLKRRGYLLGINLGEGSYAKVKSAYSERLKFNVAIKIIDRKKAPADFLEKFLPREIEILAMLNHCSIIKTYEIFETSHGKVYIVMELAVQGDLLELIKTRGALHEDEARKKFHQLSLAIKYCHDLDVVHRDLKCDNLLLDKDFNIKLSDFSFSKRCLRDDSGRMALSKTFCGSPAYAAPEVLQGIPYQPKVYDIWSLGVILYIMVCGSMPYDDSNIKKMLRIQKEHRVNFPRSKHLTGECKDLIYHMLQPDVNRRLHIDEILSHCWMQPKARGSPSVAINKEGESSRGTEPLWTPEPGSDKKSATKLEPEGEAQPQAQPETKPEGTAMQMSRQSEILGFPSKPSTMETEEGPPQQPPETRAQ", "experiment": "Selectivity interaction (ProQinase) EUB0000171b TSSK1A"}, "[4]": {"target": "Mitogen-activated protein kinase 1 (Homo sapiens, UniProt P28482)", "sequence (P28482 whole entry)": "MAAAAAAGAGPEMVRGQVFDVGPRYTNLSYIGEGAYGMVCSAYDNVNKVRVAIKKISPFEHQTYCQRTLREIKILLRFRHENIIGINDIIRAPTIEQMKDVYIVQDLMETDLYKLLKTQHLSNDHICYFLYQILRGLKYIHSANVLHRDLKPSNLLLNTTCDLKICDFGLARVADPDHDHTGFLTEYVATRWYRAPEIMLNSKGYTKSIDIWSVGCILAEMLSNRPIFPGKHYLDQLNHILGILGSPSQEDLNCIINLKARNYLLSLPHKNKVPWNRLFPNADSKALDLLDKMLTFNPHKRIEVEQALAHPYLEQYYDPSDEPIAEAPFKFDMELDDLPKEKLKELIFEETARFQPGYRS", "experiment": "Selectivity interaction (KinomeScan (DiscoverX)) EUB0000092b MAPK1", "settings": "at 10 µM"}, "[5]": {"target": "T3, Dual specificity mitogen-activated protein kinase kinase 7 (Homo sapiens) (UniProt O14733)", "T3 sequence (whole entry)": "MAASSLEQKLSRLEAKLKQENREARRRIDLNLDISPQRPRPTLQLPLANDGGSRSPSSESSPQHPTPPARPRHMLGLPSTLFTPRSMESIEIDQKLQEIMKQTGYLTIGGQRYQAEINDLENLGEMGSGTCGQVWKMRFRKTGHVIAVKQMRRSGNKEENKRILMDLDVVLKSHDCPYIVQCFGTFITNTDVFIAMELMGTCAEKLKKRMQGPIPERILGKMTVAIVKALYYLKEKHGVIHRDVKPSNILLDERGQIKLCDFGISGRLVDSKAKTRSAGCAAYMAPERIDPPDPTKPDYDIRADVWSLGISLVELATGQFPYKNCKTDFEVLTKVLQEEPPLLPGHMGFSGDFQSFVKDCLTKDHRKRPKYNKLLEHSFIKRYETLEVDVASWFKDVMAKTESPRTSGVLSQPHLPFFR", "experiment": "Selectivity interaction (Ambit KINOMEscan and KiNATiv profiling in Jurkat cells) EUB0000090b MAP2K7", "format": "cell-based", "settings": "at 1 µM"}, "[6]": {"target": "T4, Tyrosine-protein kinase Mer (Homo sapiens) (UniProt Q12866)", "T4 sequence (whole entry)": "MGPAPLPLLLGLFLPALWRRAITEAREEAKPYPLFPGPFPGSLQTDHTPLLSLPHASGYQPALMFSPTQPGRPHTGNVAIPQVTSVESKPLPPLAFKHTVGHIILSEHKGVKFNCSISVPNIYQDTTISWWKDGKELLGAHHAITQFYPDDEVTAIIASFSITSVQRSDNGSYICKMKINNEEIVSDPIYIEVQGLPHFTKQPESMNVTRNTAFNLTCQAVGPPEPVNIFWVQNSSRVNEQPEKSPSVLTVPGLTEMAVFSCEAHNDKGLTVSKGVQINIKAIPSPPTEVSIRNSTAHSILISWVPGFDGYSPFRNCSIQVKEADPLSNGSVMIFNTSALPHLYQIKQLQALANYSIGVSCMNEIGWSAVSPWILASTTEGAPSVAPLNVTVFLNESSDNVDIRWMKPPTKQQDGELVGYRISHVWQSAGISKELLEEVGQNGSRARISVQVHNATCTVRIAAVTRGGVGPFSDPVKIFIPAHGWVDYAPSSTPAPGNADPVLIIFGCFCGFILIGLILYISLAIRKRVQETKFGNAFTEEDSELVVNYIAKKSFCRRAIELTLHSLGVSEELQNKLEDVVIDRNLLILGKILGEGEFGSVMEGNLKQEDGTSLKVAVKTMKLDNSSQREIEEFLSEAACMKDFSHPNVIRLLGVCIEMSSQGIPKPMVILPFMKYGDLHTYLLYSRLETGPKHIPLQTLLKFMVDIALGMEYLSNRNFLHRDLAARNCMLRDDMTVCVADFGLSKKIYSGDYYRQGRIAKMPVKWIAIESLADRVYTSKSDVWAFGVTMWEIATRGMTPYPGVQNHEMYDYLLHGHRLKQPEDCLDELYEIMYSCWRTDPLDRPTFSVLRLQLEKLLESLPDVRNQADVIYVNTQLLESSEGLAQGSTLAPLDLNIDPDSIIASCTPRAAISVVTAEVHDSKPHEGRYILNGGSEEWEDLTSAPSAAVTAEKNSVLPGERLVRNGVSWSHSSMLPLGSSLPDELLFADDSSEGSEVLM", "experiment": "Selectivity interaction (Ambit KINOMEscan and KiNATiv profiling in Jurkat cells) EUB0000090b MERTK", "format": "cell-based", "settings": "at 1 µM"}, "[7]": {"target": "Mitogen-activated protein kinase kinase kinase 1 (Homo sapiens, UniProt Q13233)", "sequence (Q13233 whole entry)": "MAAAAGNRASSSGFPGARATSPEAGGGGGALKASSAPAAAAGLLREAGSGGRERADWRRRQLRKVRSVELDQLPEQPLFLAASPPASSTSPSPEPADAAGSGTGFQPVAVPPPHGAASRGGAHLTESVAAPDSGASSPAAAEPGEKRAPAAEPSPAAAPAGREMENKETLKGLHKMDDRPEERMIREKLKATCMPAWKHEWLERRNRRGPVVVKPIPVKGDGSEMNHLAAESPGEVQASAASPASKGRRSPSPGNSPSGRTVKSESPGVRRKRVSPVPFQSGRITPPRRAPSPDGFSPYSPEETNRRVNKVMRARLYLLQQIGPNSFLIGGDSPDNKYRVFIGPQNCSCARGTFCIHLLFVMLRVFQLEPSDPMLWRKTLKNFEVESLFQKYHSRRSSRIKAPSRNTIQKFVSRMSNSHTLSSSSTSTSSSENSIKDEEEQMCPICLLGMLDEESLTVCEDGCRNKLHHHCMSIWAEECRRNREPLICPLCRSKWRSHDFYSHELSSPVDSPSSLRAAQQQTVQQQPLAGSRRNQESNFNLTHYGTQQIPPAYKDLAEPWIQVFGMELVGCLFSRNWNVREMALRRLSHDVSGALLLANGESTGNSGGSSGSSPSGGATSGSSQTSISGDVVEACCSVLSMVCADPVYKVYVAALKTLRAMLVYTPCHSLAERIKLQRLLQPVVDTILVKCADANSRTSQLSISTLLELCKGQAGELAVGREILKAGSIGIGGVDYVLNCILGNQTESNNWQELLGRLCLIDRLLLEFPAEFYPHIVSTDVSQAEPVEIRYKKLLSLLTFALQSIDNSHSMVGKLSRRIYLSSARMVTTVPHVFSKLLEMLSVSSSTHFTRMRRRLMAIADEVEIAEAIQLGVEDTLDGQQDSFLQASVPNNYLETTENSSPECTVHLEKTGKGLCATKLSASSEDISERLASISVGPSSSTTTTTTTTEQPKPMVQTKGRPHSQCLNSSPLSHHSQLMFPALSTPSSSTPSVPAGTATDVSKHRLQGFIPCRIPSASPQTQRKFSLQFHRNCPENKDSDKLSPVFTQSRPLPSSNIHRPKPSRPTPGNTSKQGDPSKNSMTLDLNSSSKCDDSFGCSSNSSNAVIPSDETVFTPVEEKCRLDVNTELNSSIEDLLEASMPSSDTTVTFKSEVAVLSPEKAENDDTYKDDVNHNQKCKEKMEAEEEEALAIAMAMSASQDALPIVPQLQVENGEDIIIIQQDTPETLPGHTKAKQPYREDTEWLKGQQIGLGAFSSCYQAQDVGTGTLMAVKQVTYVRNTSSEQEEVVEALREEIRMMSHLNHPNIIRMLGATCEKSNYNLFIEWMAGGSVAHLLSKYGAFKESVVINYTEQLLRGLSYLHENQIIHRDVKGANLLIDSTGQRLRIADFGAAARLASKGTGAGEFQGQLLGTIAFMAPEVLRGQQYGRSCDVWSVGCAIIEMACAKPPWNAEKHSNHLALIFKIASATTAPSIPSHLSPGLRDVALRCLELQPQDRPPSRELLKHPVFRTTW", "experiment": "Selectivity interaction (Ambit KINOMEscan and KiNATiv profiling in Jurkat cells) EUB0000090b MAP3K1", "format": "cell-based", "settings": "at 1 µM"}},
  "data": [
    {"smiles": "COc1cc(Nc2nc(C)cc(-c3cnn4nc(OC)ccc34)n2)cc(C(F)(F)F)c1", "values": [
      {"measurement": "% of control", "setting": "[1]", "result": 98, "unit": "%"}
    ]},
    {"smiles": "Cc1ccc(-c2ccc3c(ccc4sc5c(c43)NC[C@@H](C)NC5=O)n2)cn1", "values": [
      {"measurement": "% of inhibition", "setting": "[2]", "result": 25, "unit": "%"}
    ]},
    {"smiles": "C=CC(=O)Nc1cccc(C(=O)Nc2ccc(Nc3cc(-c4[nH]c(SC)nc4C)ccn3)cc2)c1", "values": [
      {"measurement": "% of control", "setting": "[3]; at 1 µM", "result": 76, "unit": "%"},
      {"measurement": "% of control", "setting": "[3]; at 5 µM", "result": 72, "unit": "%"}
    ]},
    {"smiles": "CCC(=O)N1CCN(c2ccc(-n3c(=O)ccc4cnc5ccc(-c6cnc7ccccc7c6)cc5c43)cc2C(F)(F)F)CC1", "values": [
      {"measurement": "% of control", "setting": "[4]", "result": 100, "unit": "%"}
    ]},
    {"smiles": "CN(C)C/C=C/C(=O)Nc1ccc(C(=O)N2CCCC(Nc3ncc(Cl)c(-c4c[nH]c5ccccc45)n3)C2)cc1", "note": "(stereo not drawn)", "values": [
      {"measurement": "% of control", "setting": "[5]", "result": 100, "unit": "%"},
      {"measurement": "% of control", "setting": "[6]", "result": 61, "unit": "%"},
      {"measurement": "% of control", "setting": "[7]", "result": 82, "unit": "%"}
    ]}
  ]
}
